In PubChem BioAssay (NCI):
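Tested at 5 concentrations; 48 h exposure; 96-well plates; endpoints linearly interpolated, else capped at highest concentration. The concentration for 50% growth inhibition is given as GI50. Definition used: TGI = concentration required for complete inhibition of growth.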

Legend:
Experiment in all cases: NCI anticancer screen, dose series, 48 h
A498 renal = test system: A498 renal
DLD-1 colon = test system: DLD-1 colon
EKVX NSCLC = test system: EKVX NSCLC
HL-60(TB) leukemia = test system: HL-60(TB) leukemia
IGROV1 ovarian = test system: IGROV1 ovarian
LXFL 529 NSCLC = test system: LXFL 529 NSCLC
SF-295 CNS = test system: SF-295 CNS
SK-MEL-5 melanoma = test system: SK-MEL-5 melanoma
UACC-257 melanoma = test system: UACC-257 melanoma
KM20L2 colon = test system: KM20L2 colon

Row | SMILES | TGI (A498 renal) [µM] | TGI (DLD-1 colon) [µM] | TGI (EKVX NSCLC) [µM] | TGI (HL-60(TB) leukemia) [µM] | TGI (IGROV1 ovarian) [µM] | TGI (LXFL 529 NSCLC) [µM] | TGI (SF-295 CNS) [µM] | TGI (SK-MEL-5 melanoma) [µM] | TGI (UACC-257 melanoma) [µM] | TGI (KM20L2 colon) [µM] | GI50 (A498 renal) [µM] | GI50 (EKVX NSCLC) [µM] | GI50 (HL-60(TB) leukemia) [µM] | GI50 (IGROV1 ovarian) [µM] | GI50 (SF-295 CNS) [µM] | GI50 (SK-MEL-5 melanoma) [µM] | GI50 (UACC-257 melanoma) [µM]
1 | O=C(NCCCCCCCCNC(=O)c1cnc2ccccc2n1)c1cnc2ccccc2n1 | > 100 | > 100 | > 100 | > 100 | > 100 | > 100 | > 100 | > 100 | > 100 | – | – | – | – | – | – | – | –
2 | Nc1ncnc2c1ncn2C1OC(COP(=O)(O)CP(=O)(O)O)C(O)C1O (configuration not stated) | > 100 | – | > 100 | > 100 | > 100 | – | > 100 | > 100 | > 100 | – | – | – | – | – | – | – | –
3 | CCCCCCCCCCCOC(=S)NC(C)C | 39 | 49 | 43.3 | 39.1 | 49.9 | 85.4 | 40.7 | 31.2 | 42.6 | 30.2 | – | – | – | – | – | – | –
4 | COc1ccc(/C(=N/NC(N)=O)C2(O)C(=O)Nc3ccc([N+](=O)[O-])cc32)cc1 (configuration not stated) | 87.5 | 57 | > 100 | – | 94.7 | 35.9 | – | 77.2 | 39.4 | 51.5 | – | – | – | – | – | – | –
5 | N=C(c1ccccc1)N(c1ccccc1)c1ccccc1 | – | > 100 | > 100 | > 100 | – | > 100 | > 100 | – | > 100 | > 100 | – | – | – | – | – | – | –
6 | FC(F)(F)C1(Cl)C(c2ccccc2)=C1c1ccccc1 | – | 28.3 | 29.9 | 24.4 | 29.5 | 26.3 | 28.1 | 24 | 27.2 | 30.1 | – | – | – | – | – | – | –
7 | C=C1C(=O)O[C@H]2[C@H]1CC/C(CNC(=O)/C=C/c1ccc(Br)cc1)=C\CC[C@@]1(C)O[C@@H]21 | 2.45 | – | 2.91 | 7.28 | 3.05 | – | 5.81 | 2.96 | 2.97 | – | 0.236 | 1.46 | 0.744 | 1.24 | 2.16 | 1.6 | 1.43
8 | C=CCC1OC(C)(C)Oc2ccc(OCOCCOC)cc21 (configuration not stated) | > 100 | – | > 100 | – | > 100 | > 100 | > 100 | > 100 | > 100 | – | – | – | – | – | – | – | –
9 | Nc1ccn(C2OC(CO)C(O)C2F)c(=O)n1 (configuration not stated) | > 5000 | – | > 5000 | – | > 5000 | – | > 5000 | > 5000 | > 5000 | – | > 5000 | > 5000 | 189 | > 5000 | > 5000 | > 5000 | > 5000
10 | O=C(O)CN(c1ccccc1)S(=O)(=O)c1ccc(NC(=O)c2ccccc2)cc1 | > 100 | > 100 | > 100 | > 100 | > 100 | > 100 | – | – | > 100 | > 100 | – | – | – | – | – | – | –
11 | Cc1c2cnccc2c(C)c2c1c1cc(C3OCCCO3)ccc1n2C | 0.52 | – | 2.56 | 1.77 | 2.37 | – | 1.9 | 1.44 | 1.8 | – | 0.139 | 0.451 | 0.375 | 0.337 | 0.348 | 0.379 | 0.343
12 | COc1ccc(S(=O)(=O)NC(C)C(=O)O)cc1 (configuration not stated) | > 100 | > 100 | > 100 | > 100 | > 100 | > 100 | > 100 | > 100 | > 100 | > 100 | – | – | – | – | – | – | –
13 | CN(C)CCCOc1ccccc1NC1=C(Cl)C(=O)C(Nc2ccccc2OCCCN(C)C)=C(Cl)C1=O | 5.6 | – | 1.97 | 0.656 | 0.969 | – | 2.9 | 2.65 | 2.69 | – | 1.84 | 0.693 | 0.244 | 0.355 | 1.53 | 1.35 | 1.17
14 | CC1=CC2CC(C)=C(CC[C@]3(C)CC[C@H]([C@@H](C)C(=O)O)OO3)C(C)(C)C2CC1 (some centres not stated) | 3.14 | 0.426 | 3.64 | 0.106 | 0.453 | 0.414 | 2.67 | 2.52 | 3.03 | 2.63 | – | – | – | – | – | – | –
15 | Cc1c2cc[nH]c(=O)c2c(C)c2c1[nH]c1cc(OCCN3CCN(C)CC3)ccc12 | 2.94 | – | 10.3 | 4.36 | 7.59 | – | 7.76 | 2.44 | 7.72 | – | 1.3 | 1.11 | 1.44 | 0.799 | 0.788 | 1.18 | 2.51
16 | CC[P+](C)(Cc1ccccc1)c1ccccc1 (configuration not stated) | > 100 | > 100 | > 100 | > 100 | > 100 | > 100 | > 100 | > 100 | > 100 | > 100 | – | – | – | – | – | – | –
17 | Cn1cc(-c2nonc2-c2c[nH]c3ccccc23)c2ccccc21 | 2.11 | – | 16 | 0.731 | 18.3 | – | 2.97 | 12.9 | 20.5 | – | 0.435 | 0.567 | 0.277 | 0.574 | 0.352 | 0.518 | 0.918
18 | Cc1[nH]ncc1-c1cc2nc(C3CC4CCN3CC4)[nH]c(=O)c2s1 (configuration not stated) | 8.72 | – | 90.2 | 6.15 | > 100 | – | > 100 | 52.9 | 84 | – | 1.98 | 4.3 | 2.06 | 3.47 | 2.88 | 2.77 | 5.79
